Data set [1] is described as follows: elogD, automated reversed phase-HPLC logD (pH 7.4). It counts as physicochemical. Particulars: Supelcosil LC-ABZ column. The method, then:
(§1) elogD: An automated reversed phase-HPLC method developed by Lombardo et al. was used for logD (pH 7.4) measurements. All the chromatographic runs were performed on a HP -1100 HPLC ChemStation at the ambient temperature. The HPLC columns used were Supelcosil LC-ABZ, 5 µm, 4.6 mm × 50 mm. A diode array detector was used to monitor signals at 210, 225, 245, and 310 nm. The mobile phase consisted of 15−75% of A and 85−25% of B.
(§2) Mobile phase A: methanol with addition of 0.25% 1-octanol.
(§3) Mobile phase B: 20 mM of MOPS (morpholine−propane−sulfonic acid) buffer prepared in octanol saturated water and 0.25% of n-decylamine.
(§4) Samples were prepared in 1:1 mixture of methanol/water at 100 μg/mL concentration.
The retention of each compound is obtained at three different concentrations of methanol in the mobile phase and extrapolated to 0% methanol (100% water). […]

Data set [2] in a line: Chemical (pH) stability assay. It counts as physicochemical. Particulars: low pH (1.2), 37 °C, up to 4 h. The method, then:
as §1, §2, §3, §4
The retention of each compound is obtained at three different concentrations of methanol in the mobile phase and extrapolated to 0% methanol (100% water).
(§5) HLM Assay: The high throughput human microsomal stability assay was performed in a 384 -well format.
All liquid handling and incubation were conducted with a Biomek FX, equipped with one 3 position Mecour heat exchangers. Pooled human liver microsomes of 50 don ors (Lot: HLM-103) were purchased from BioIVT. […]
Assay ready plated: Plate containing 6µL at 30 mM of test compounds in 96 deep well plate (volume = 600 µL). […]

The nature of data set [3]: RRCK passive permeability assay. It counts as in vitro ADME, canine. Particulars: dog, MDCK; read-out: RRCK cell permeability. The procedure:
Aqueous buffer preparation: pH 3: 50 µL of 1N hydrochloric acid was added to 500 mL of deionized water.
The solution was titrated with 1N hydrochloric acid to pH 3, and back titrated with 1N sodium hydroxide. pH 7.4: 100 mM sodium phosphate buffer is made by adding 56.4 g of dibasic sodium phosphate and 10.3 g of monobasic sodium phosphate to 4 L of deionized water. 250 µL of 100 mM sodium phosphate buffer was diluted with 250 µL of deionized water. The solution was titrated with 1N hydrochloric acid to pH 7.4, and back titrated with 1N sodium hydroxide. pH 10: Fisher Scientific pH 10 buffer (SB116-500) containing potassium hydroxide, potassium carbonate, and potassium borate. pH 12.8: 30 mL of 1N NaOH was added to 200 mL of deionized water. The solution was titrated with 1N sodium hydroxide to pH 12.8, and back titrated with 1N hydrochloric acid.
RRCK: Passive permeability assay were carried out using low‐efflux MDCKII cells (Madin–Darby canine kidney cell line) also called Ralph Russ Canine Kidney cell (RRCK).11

The nature of data set [4]: Clearance by human liver microsomes (HLM) stability assay. The data set is classed as in vitro ADME. Particulars: pH 7.4; pooled human liver microsomes, 1 µM test compound, 37 °C. The method, then:
as §5
All liquid handling and incubation were conducted with a Biomek FX, equipped with one 3 position Mecour heat exchangers. Pooled human liver microsomes of 50 don ors (Lot: HLM-103) were purchased from BioIVT. Each incubation contained test compound (1 µM), human liver microsomes ([…] CYP protein equivalent to 0.806 mg/mL protein concentration), NADPH (1.3 mM), MgCl 2 (3.3 mM) and potassium phosphate buffer (100 mM at pH 7.4). The final reaction volume was […] containing 0.01% DMSO. The incubations were conducted at 37 °C at various time points (1, 4, 7, 12, 20, 25, 45, 60 min). Cold acetonitrile with mass spectrometry (MS) internal standard (IS, CP-628374) was then added to quench the reaction.
The plates were centrifuged at 3000 rpm for 10 min at 4 °C (Sorvall RC 3C Plus, Thermo Scienti fic, Waltham, MA). The water layer was transferred to the 384 -well plate, sealed and subsequently analy sed using LCeMS/MS. Control plates were prepared in the same manner without adding the NADPH cofactor to monitor any non-CYP catalysed decline. Propranolol (2D6, 1A2 and 2C19 substrate), quinidine (3A4), diclofenac (2C9), verapamil (3A4, 1A2, 2C), amitriptyline (2D6, 2C19) and naloxone (UGT2B7) were used as positive controls on each plate to monitor the activities of the various CYPs in the assay. […]

From paper PMC8672821, “Investigating 3,3-diaryloxetanes as potential bioisosteres through matched molecular pair analysis” (RSC Medicinal Chemistry, 2021) come the findings set out here.

The molecule `Cc1cc(C2(c3cn(C)c4ccccc34)COC2)ccc1OC1CNC1` [1a] displayed a melting point of 100 to 103 °C. In data set [1], this molecule showed a chromatographic logD of 2.13. This molecule also returned a logD in the data set “sfLogD” of 1.37.
Molecule `Cc1cc(C(=O)c2cn(C)c3ccccc23)ccc1OC1CNC1` [1b] yielded a melting point of 70 to 75 °C. This molecule also registered a logD in “sfLogD” of 1.07.
The molecule `Cc1cc(Cc2cn(C)c3ccccc23)ccc1OC1CNC1` [1c] had a melting point of 80 to 82 °C. For the same molecule, in data set [1], the chromatographic logD was determined as 3.1. In addition, in the data set “sfLogD”, the logD was 1.68.
In turn, `Cc1cc(C(C)(C)c2cn(C)c3ccccc23)ccc1OC1CNC1` [1d] registered a melting point of 75 to 80 °C. This molecule also had a chromatographic logD in data set [1] of 2.9. Further, the pH-dependent lipophilicity (logD) in “sfLogD” is 2.59.
The molecule `Cc1cc(C2(c3cn(C)c4ccccc34)CCC2)ccc1OC1CNC1` [1e] yielded a chromatographic logD in data set [1] of 3.2. Moreover, in “sfLogD”, the logD was found to be 2.81.
For `Cn1cc(C2(c3ccc(OC4CNC4)cc3)COC2)c2ccccc21` [2a], the chromatographic logD in data set [1] came to 1.7. In “sfLogD”, this molecule came in with a logD of 0.99.
On to `Cc1cc(C2(c3cn(C)c4ccccc34)COC2)ccc1Oc1ccccn1` [3a], for which the melting point was in the range of 175 to 177 °C. Besides, in data set [1], the chromatographic logD was determined as 4.6. Moreover, the logD in the data set “sfLogD” amounted to 4.36.
For `Cc1cc(C(=O)c2cn(C)c3ccccc23)ccc1Oc1ccccn1` [3b], in that order: 123 to 124 °C, 3.99 and 1.92.
The molecule `Cc1cc(C2(c3cn(C)c4ccccc34)COC2)ccc1-c1cnc(C(F)(F)F)nc1` [4a] had a melting point of 181 to 182 °C. The molecule further gave a chromatographic logD in data set [1] of 5.1.
Take `Cc1cc(C(=O)c2cn(C)c3ccccc23)ccc1-c1cnc(C(F)(F)F)nc1` [4b]: the melting point was 185 to 187 °C. The same molecule came in with a chromatographic logD in data set [1] of 4.3. Further, the log distribution coefficient (logD) in “sfLogD” stood at 4.21.
Consider `Cc1cc(C2(c3cn(C)c4ccccc34)COC2)ccc1O` [5a], for which the melting point lay in the range of 233 to 235 °C. For the same molecule, in data set [2], the “chemical stability (% compound remaining), in words” value was “poorer stability at low pH”. Besides, in data set [1], the chromatographic logD came out at 3.73. Further, the logD in the data set “sfLogD” turned out to be 3.63.
Regarding `Cc1cc(C(=O)c2cn(C)c3ccccc23)ccc1O` [5b], the melting point fell in the range of 239 to 241 °C. In addition, in data set [2], the “chemical stability (% compound remaining), in words” value was “poorer stability at low pH”. The chromatographic logD in data set [1] was found to be 3.3. In the data set “sfLogD”, the logD was found to be 3.33.
The molecule `Cc1cc(Cc2cn(C)c3ccccc23)ccc1O` [5c] returned a melting point of 77 to 79 °C. The chromatographic logD in data set [1] stood at 4.78. For the same molecule, the logD in “sfLogD” amounted to 2.79. Also, in data set [3], the Papp turned out to be 0.1 ×10⁻⁶ cm/s.
`Cc1cc(C(C)(C)c2cn(C)c3ccccc23)ccc1O` [5d]: the melting point lay in the range of 110 to 112 °C. Besides, the chromatographic logD in data set [1] stood at 5.05. The molecule further displayed a logD in “sfLogD” of 3.72.
On to `Cn1cc(C2(c3ccc(O)cc3)COC2)c2ccccc21` [6a], for which the melting point lay within 207 to 209 °C. In addition, the chromatographic logD in data set [1] was determined as 3.28. Further, the logD in “sfLogD” is 3.27.
For `COc1ccc(C2(c3ccc(OC4CNC4)c(C)c3)COC2)cc1` [7a], in that order: 108 to 115 °C, 1.43 and 1.06.
For the molecule `COc1ccc(C(=O)c2ccc(OC3CNC3)c(C)c2)cc1` [7b], the melting point lay in the range of 99 to 103 °C. In data set [1], the chromatographic logD was found to be 1.74. Further, the logD in the data set “sfLogD” worked out at 1.21.
For `COc1ccc(C2(c3ccc(N4CCOCC4)c(C)c3)COC2)cc1` [8a], in that order: 133 to 135 °C, 3.68 and 3.47.
Turning to `COc1ccc(C(=O)c2ccc(N3CCOCC3)c(C)c2)cc1` [8b], the chromatographic logD in data set [1] is 3.9. This molecule also showed a logD in the data set “sfLogD” of 3.06.
Regarding `COc1ccc(C2(c3ccc(-c4c[nH]nc4C(F)(F)F)c(C)c3)COC2)cc1` [9a], the melting point fell in the range of 175 to 177 °C. In data set [1], this molecule displayed a chromatographic logD of 4.5. The logD in “sfLogD” was 4.62.
For `COc1ccc(C(=O)c2ccc(-c3c[nH]nc3C(F)(F)F)c(C)c2)cc1` [9b], in that order: 207 to 208 °C, 4.8 and 4.74.
For `COc1ccc(C2(c3ccc(O)c(C)c3)COC2)cc1` [10a], in that order: 140 to 143 °C, 3.07 and 3.22.
In turn, `COc1ccc(C(=O)c2ccc(O)c(C)c2)cc1` [10b] showed a melting point of 186 to 187 °C. The molecule further displayed a logD in the data set “sfLogD” of 3.49.
Turning to `Cc1cc(C2(c3cn(C)c4ccccc34)COC2)ccc1O` [C00001], the microsomal CLint at 1 h, 1 µM in data set [4] turned out to be 22.9 µL/min/mg.
Regarding `Cc1cc(C(=O)c2cn(C)c3ccccc23)ccc1O` [C00002], the microsomal CLint at 1 h, 1 µM in data set [4] was found to be 18 µL/min/mg.
As for `Cc1cc(C2(c3cn(C)c4ccccc34)COC2)ccc1OC1CNC1` [C00003], in data set [4], the microsomal CLint at 1 µM is below 7 µL/min/mg.
Still for that read-out and setting: the value for `Cc1cc(C(=O)c2cn(C)c3ccccc23)ccc1OC1CNC1` [C00004] was below 7 µL/min/mg.
The molecule `COc1ccc(C2(c3ccc(O)c(C)c3)COC2)cc1` [C00005] displayed an intrinsic metabolic clearance (microsomal CLint) at 1 h, 1 µM in data set [4] of 80 µL/min/mg.
On to `COc1ccc(C(=O)c2ccc(O)c(C)c2)cc1` [C00006], for which the microsomal CLint at 1 h, 1 µM in data set [4] is 77.4 µL/min/mg.
As for `COc1ccc(C2(c3ccc(OC4CNC4)c(C)c3)COC2)cc1` [C00007], the microsomal CLint at 1 h, 1 µM in data set [4] came out at 7.5 µL/min/mg.
The same measure, in the same setting: the value for `COc1ccc(C(=O)c2ccc(OC3CNC3)c(C)c2)cc1` [C00008] was 75 µL/min/mg.
On the same count and under the same terms, the same measure for `Cc1cc(C2(c3cn(C)c4ccccc34)COC2)ccc1-c1cnc(C(F)(F)F)nc1` [C00009]: 8.5 µL/min/mg.
The molecule `Cc1cc(C(=O)c2cn(C)c3ccccc23)ccc1-c1cnc(C(F)(F)F)nc1` [C00010] registered a microsomal CLint at 1 µM in data set [4] below 7 µL/min/mg.
